Drawing on US12673947B2 (Cytosinlab Therapeutics Co., Ltd., priority 2020, dated 2026), this text covers IC50 for 37 compounds.

The target in experiment [1] is T1, FLT3 (Homo sapiens, UniProt P36888).
T1 construct: purchased Carna 08-145
T1 sequence (P36888 27-993): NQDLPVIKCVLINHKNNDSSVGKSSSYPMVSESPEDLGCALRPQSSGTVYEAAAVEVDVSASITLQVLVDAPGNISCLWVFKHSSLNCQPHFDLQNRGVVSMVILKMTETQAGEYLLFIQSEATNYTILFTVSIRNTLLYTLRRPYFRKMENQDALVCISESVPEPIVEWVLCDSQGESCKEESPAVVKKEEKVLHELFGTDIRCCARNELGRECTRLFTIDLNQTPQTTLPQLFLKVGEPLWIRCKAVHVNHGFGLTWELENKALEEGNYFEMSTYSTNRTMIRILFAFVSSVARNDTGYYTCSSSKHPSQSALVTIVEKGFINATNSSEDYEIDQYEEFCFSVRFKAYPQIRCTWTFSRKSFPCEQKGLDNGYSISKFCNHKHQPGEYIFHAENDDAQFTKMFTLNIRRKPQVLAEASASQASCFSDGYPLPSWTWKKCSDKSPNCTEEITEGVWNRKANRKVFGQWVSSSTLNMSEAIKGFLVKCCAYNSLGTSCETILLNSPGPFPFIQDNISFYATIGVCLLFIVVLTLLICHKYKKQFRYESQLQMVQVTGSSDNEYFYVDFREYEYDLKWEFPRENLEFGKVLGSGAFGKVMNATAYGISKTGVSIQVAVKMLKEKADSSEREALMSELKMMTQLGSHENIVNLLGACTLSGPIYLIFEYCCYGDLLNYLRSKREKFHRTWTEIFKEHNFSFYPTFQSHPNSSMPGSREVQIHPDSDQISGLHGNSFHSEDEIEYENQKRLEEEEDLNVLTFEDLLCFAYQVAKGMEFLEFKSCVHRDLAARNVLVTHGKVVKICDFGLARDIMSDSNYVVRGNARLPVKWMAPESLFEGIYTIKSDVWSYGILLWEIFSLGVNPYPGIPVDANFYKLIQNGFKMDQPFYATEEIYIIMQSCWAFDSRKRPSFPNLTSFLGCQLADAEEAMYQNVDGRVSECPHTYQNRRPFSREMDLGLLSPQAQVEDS
As to the kind of experiment: FLT3 kinase in vitro inhibitory activity experiment (Caliper mobility shift, conversion rate). In kind it is biochemical. Particulars: IC50 class, read-out: Enzyme activity FLT3. In a few lines:
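FLT3 was pre-incubated with compound for 10 min at room temperature, then the reaction was started with ATP plus Kinase substrate 2 and run 30 min at room temperature before stop solution. Substrate conversion was read by Caliper mobility shift.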

Experiment [2] deals with MV4;11 cells. As to the kind of experiment: MV4;11 in vitro inhibition of proliferation assay (CellTiter-Glo, 72 hours). It is filed as cell-based. Particulars: Homo sapiens, MV4-11, 72 h, IC50 class, read-out: Inhibitory activity of cell proliferation MV4;11. In a few lines: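 MV4;11 cells in IMDM/10% FBS, 2000 per well, were exposed to 9-point 3-fold DMSO dilutions from 10 uM (final DMSO 0.3%) in triplicate for 72 hours at 37° C., 5% CO2. Viability was read by CellTiter-Glo luminescence, and IC50 came from a four-parameter fit of inhibition.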

Some results are limits rather than exact numbers.

Take `CCc1nc2c(N)ncc(-c3cnn(-c4cc(C)ncn4)c3)c2nc1N[C@@H]1CC[C@H](O)C1` [Compound 304]: the IC50 in experiment [1] and in experiment [2] was at most 10 nM in each case.
On to `CCc1nc2c(N)ncc(-c3cnn(-c4ccnnc4)c3)c2nc1N[C@@H]1CC[C@H](O)C1` [Compound 306], for which the IC50 in experiment [1] and in experiment [2] was at most 10 nM throughout.
For the compound `CCc1nc2c(N)ncc(-c3cnn(-c4ccnc(C(C)(C)O)c4)c3)c2nc1N[C@@H]1CC[C@H](O)C1` [Compound 308], the IC50 in experiment [1] and in experiment [2] was at most 10 nM in each case.
As for `CCc1nc2c(N)ncc(-c3cnn(-c4ccnc(OC)c4)c3)c2nc1N[C@@H]1CC[C@H](O)C1` [Compound 309], the IC50 in experiment [1] and in experiment [2] was at most 10 nM in each case.
Turning to `CCc1nc2c(N)ncc(-c3cnn(-c4ccnc(N5CCCC5)c4)c3)c2nc1N[C@@H]1CC[C@H](O)C1` [Compound 310], the IC50 in experiment [1] is at most 10 nM; in experiment [2] it was 10 to 100 nM.
For `CCc1nc2c(N)ncc(-c3cnn(-c4ccc(CNC)cc4)c3)c2nc1N[C@@H]1CC[C@H](O)C1` [Compound 311] the same measures were at most 10 nM and at most 10 nM.
For the compound `CCc1nc2c(N)ncc(-c3ccc(-c4cnn(C5CCN(C)CC5)c4)c(OC)c3)c2nc1N[C@@H]1CC[C@H](O)C1` [Compound 312, (1S, 3R)-3-((5-amino-3-ethyl-8-(3-methoxy-4-(1-(1-methylpiperidin-4-yl)-1H-pyrazol-4-yl)phenyl)pyridino [3,4-b]pyrazin-2-yl)amino) cyclopentan-1-ol], the values for the IC50 in experiment [1] and in experiment [2] were at most 10 nM and 10 to 100 nM, respectively.
As for `CCc1nc2c(N)ncc(-c3ccc(-c4ccc(C5CCN(C)CC5)cc4)c(OC)c3)c2nc1N[C@@H]1CC[C@H](O)C1` [Compound 313], the IC50 in experiment [1] is at most 10 nM; in experiment [2], 10 to 100 nM.
`CCc1nc2c(N)ncc(-c3ccc(N4CCC(N5CCCN(C)CC5)CC4)c(OC)c3)c2nc1NC1CCOCC1` [Compound 314]: the IC50 in experiment [1] and in experiment [2] was 10 to 100 nM in each case.
For `CCc1nc2c(N)ncc(-c3ccc(N4CCC(N5CCN(CC)CC5)CC4)c(OC)c3)c2nc1NC1CCOCC1` [Compound 315, 3-ethyl-8-(4-(4-(4-ethylpiperazine-1-yl)piperidine-1-yl)-3-methoxyphenyl)-N2-(tetrahydro-2H-pyran-4-yl)pyridino[3,4-b]pyrazine-2,5-diamine], the IC50 in experiment [1] was at most 10 nM; in experiment [2], 10 to 100 nM.
Regarding `CCc1nc2c(N)ncc(-c3cnn(-c4ccnc(CO)c4)c3)c2nc1N[C@@H]1CC[C@H](O)C1` [Compound 318], the IC50 in experiment [1] and in experiment [2] was at most 10 nM in each case.
With `CCc1nc2c(N)ncc(-c3ccc(N4CCC(N5CC6CCC(C5)N6)CC4)c(OC)c3)c2nc1NC1CCOCC1` [Compound 319, 8-(4-(4-(3,8-diazabicyclo[3.2.1]octane-3-yl)piperidin-1-yl)-3-methoxyphenyl)-3-ethyl-N2-(tetrahydro-2H-pyran-pyridin-4-yl)pyridino [3,4-b]pyrazine-2,5-diamine], the IC50 is at most 10 nM in experiment [1] and 10 to 100 nM in experiment [2].
As to `CCc1nc2c(N)ncc(-c3ccc(N4CCC(N5CCN(CC(F)F)CC5)CC4)c(OC)c3)c2nc1NC1CCOCC1` [Compound 321], the IC50 in experiment [1] was at most 10 nM; in experiment [2], 10 to 100 nM.
Consider `CCc1nc2c(N)ncc(-c3ccc(N4CCC(N5CCN(C)CC5)CC4C)c(OC)c3)c2nc1NC1CCOCC1` (centres unmarked) [Compound 322], for which the figures for the IC50 in experiment [1] and in experiment [2] were at most 10 nM and 10 to 100 nM, respectively.
`CCc1nc2c(N)ncc(-c3ccc(N4CCC(N5CC[C@@H](NC)C5)CC4)c(OC)c3)c2nc1NC1CCOCC1` [Compound 323]: the IC50 is at most 10 nM in experiment [1] and 10 to 100 nM in experiment [2].
For `CCc1nc2c(N)ncc(-c3ccc(N4CCC(N5CC[C@H](NC)C5)CC4)c(OC)c3)c2nc1NC1CCOCC1` [Compound 324], the IC50 in experiment [1] was at most 10 nM; in experiment [2] it was 10 to 100 nM.
Regarding `CCc1nc2c(N)ncc(-c3ccc(N4CCC(N5CCN(CC)CC5)CC4)c(OC)c3)c2nc1N[C@H]1CCOC1` [Compound 325], the IC50 in experiment [1] is at most 10 nM; in experiment [2], 10 to 100 nM.
With `CCc1nc2c(N)ncc(-c3ccc(N4CCC(N5CCN(CCC#N)CC5)CC4)c(OC)c3)c2nc1NC1CCOCC1` [Compound 326], the IC50 in experiment [1] and in experiment [2] was 10 to 100 nM in each case.
For `CCc1nc2c(N)ncc(-c3ccc(N4CCC(N5C6CCC5CN(C)C6)CC4)c(OC)c3)c2nc1NC1CCOCC1` [Compound 327, 3-ethyl-8-(3-methoxy-4-(4-(3-methyl-3,8-diazabicyclo[3.2.1]octyl-8-yl)piperidin-1-yl)phenyl)-N2-(tetrahydro-2H-pyran-4-yl)pyridino[3,4-b]pyrazine-2,5-diamine], the values for the IC50 in experiment [1] and in experiment [2] were at most 10 nM and 10 to 100 nM, respectively.
For the compound `CCc1nc2c(N)ncc(-c3ccc(N4CCC(N5CCC(C)(O)CC5)CC4)c(OC)c3)c2nc1NC1CCOCC1` [Compound 328], the IC50 in experiment [1] is at most 10 nM; in experiment [2], 10 to 100 nM.
On to `CCc1nc2c(N)ncc(-c3cnn(-c4ccc(C(C)(C)O)nc4)c3)c2nc1N[C@@H]1CC[C@H](O)C1` [Compound 329], for which the IC50 in experiment [1] and in experiment [2] was at most 10 nM throughout.
Regarding `CCc1nc2c(N)ncc(-c3cnn(-c4ncc(C(C)(C)O)cn4)c3)c2nc1N[C@@H]1CC[C@H](O)C1` [Compound 330], the IC50 in experiment [1] was at most 10 nM; in experiment [2], 10 to 100 nM.
For `CCc1nc2c(N)ncc(-c3cnn(-c4cnc(C(C)(C)O)nc4)c3)c2nc1N[C@@H]1CC[C@H](O)C1` [Compound 331] the same measures were at most 10 nM and at most 10 nM.
For `CCc1nc2c(N)ncc(-c3cnn(-c4cnc(C(C)(C)O)cn4)c3)c2nc1N[C@@H]1CC[C@H](O)C1` [Compound 332] the same measures were at most 10 nM and at most 10 nM.
`CCc1nc2c(N)ncc(-c3cnn(-c4ccc(C(C)(C)O)cc4)c3)c2nc1N[C@@H]1CC[C@H](O)C1` [Compound 333]: the IC50 in experiment [1] and in experiment [2] was at most 10 nM each time.
Regarding `CCc1nc2c(N)ncc(-c3cnn(-c4ncc(C#N)cn4)c3)c2nc1N[C@@H]1CC[C@H](O)C1` [Compound 335], the IC50 in experiment [1] and in experiment [2] was at most 10 nM throughout.
In the case of `CCc1nc2c(N)ncc(-c3cnn(-c4ccc(C#N)cc4)c3)c2nc1N[C@@H]1CC[C@H](O)C1` [Compound 336], the IC50 in experiment [1] and in experiment [2] was at most 10 nM in each case.
Take `CCc1nc2c(N)ncc(-c3cnn(-c4ccc(C#N)nn4)c3)c2nc1N[C@@H]1CC[C@H](O)C1` [Compound 337]: the IC50 in experiment [1] is at most 10 nM; in experiment [2] it was 10 to 100 nM.
Take `CCc1nc2c(N)ncc(-c3cnn(-c4cnc(C#N)nc4)c3)c2nc1N[C@@H]1CC[C@H](O)C1` [Compound 338]: the IC50 in experiment [1] and in experiment [2] was at most 10 nM throughout.
With `CCc1nc2c(N)ncc(-c3cnn(-c4cnc(C#N)cn4)c3)c2nc1N[C@@H]1CC[C@H](O)C1` [Compound 339], the IC50 in experiment [1] is at most 10 nM; in experiment [2], 10 to 100 nM.
As for `CCc1nc2c(N)ncc(-c3cnn(-c4ccc(C(F)F)nc4)c3)c2nc1N[C@@H]1CC[C@H](O)C1` [Compound 340], the results for the IC50 in experiment [1] and in experiment [2] were at most 10 nM and 10 to 100 nM, respectively.
In the case of `CCc1nc2c(N)ncc(-c3cnn(-c4ncc(F)cn4)c3)c2nc1N[C@@H]1CC[C@H](O)C1` [Compound 341], the IC50 in experiment [1] and in experiment [2] was at most 10 nM each time.
`CCc1nc2c(N)ncc(-c3cnn(-c4ccc(F)c(F)c4)c3)c2nc1N[C@@H]1CC[C@H](O)C1` [Compound 342]: the results for the IC50 in experiment [1] and in experiment [2] were at most 10 nM and 10 to 100 nM, respectively.
For `CCc1nc2c(N)ncc(-c3cnn(-c4ccnc(F)c4)c3)c2nc1N[C@@H]1CC[C@H](O)C1` [Compound 343] the same measures were at most 10 nM and at most 10 nM.
For `CCc1nc2c(N)ncc(-c3cnn(-c4ncc(OC(C)C)cn4)c3)c2nc1N[C@@H]1CC[C@H](O)C1` [Compound 344] the same measures were at most 10 nM and at most 10 nM.
For `CCc1nc2c(N)ncc(-c3cnn(-c4ccnc(Cl)c4)c3)c2nc1N[C@@H]1CC[C@H](O)C1` [Compound 345] the same measures were at most 10 nM and at most 10 nM.
For the compound `CCc1nc2c(N)ncc(-c3cnn(-c4ncc(C#N)cn4)c3)c2nc1NC1CCOCC1` [Compound 346], the figures for the IC50 in experiment [1] and in experiment [2] were at most 10 nM and 10 to 100 nM, respectively.
